# “Also recorded” adds a separate entry of the source.
# How the values were obtained:
# [1] = parameters: method as in PMID 34277124; details: cited from earlier work
# [2] = Sorption of bisphosphonates on hydroxyapatite in SBF; assay type: physicochemical; details: 0.7 mM, 30 mg HA; for affinity for HA (sorption), comparison in words: 10 mL SBF, 1, 2 and 48 h
# Description: The first step was to investigate the effect of concentration on the RSD sorption on HA. The sorption capacity was examined for 4 concentrations (0.2, 0.5, 0.7 and 1 mM). 30 mg (+ /− 0.1 mg) of HA was weighed into polypropylene tubes. Subsequently, 10 mL of Simulated Body Fluid (SBF) (Table 2) containing BPs was poured into the tubes and placed in a shaker for 1 h, 2 h, and 48 h. Sorption of BP compounds on HA was measured using a UV–VIS spectrophotometer after 5 min of centrifugation (speed 4000 rpm). The compound concentrations were measured by Multiskan152 Sky Microplate Spectrophotometer (Thermo Fisher Scientific, Waltham, MA, USA). Next, for one concentration (0.7 mM), sorption studies of all BPs were conducted in the same manner as indicated above for RSD. The measurements were conducted in the range of 220–400 nm. The quantitative assessment was performed based on the calibration curve method at the absorbance maximum for each BP (absorption properties of the tested compounds are summarized in Table 3).
# [3] = Parallel artificial membrane permeability assay (PAMPA); assay type: in vitro ADME; details: 175 μM in PBS pH 7.4, 5 h; for PAMPA permeability, comparison in words: room temperature
# Description: A parallel artificial membrane permeability assay (PAMPA) (Corning® Gentest™ Pre-coated PAMPA Plate System Gentest, USA) was prepared according to the recommended protocol. 96-well PAMPA plate was heated to room temperature for at least 30 min. Compound solutions were prepared in buffer (175 μM in PBS, pH 7.4). 300 μL of the BP solution was added to each donor plate well, and 200 μL of buffer (PBS, pH 7.4) was added to each acceptor plate. The filter plate (acceptor plate) was then placed on the receiver plate (donor plane) and the plate assembly was incubated at room temperature for 5 h. The compound amounts were measured by Multiskan152 SkyMicroplate Spectrophotometer (Thermo Fisher Scientific, Waltham, USA). The permeability of the BPs was calculated using the following formula (Eq. 1)1 Pe=-In[1-CA(t)/Cequilibrium]/A∗(1/VD+1/VA)∗t where Pe is the permeability (cm s^−1), Cequilibrium is [CD(t) × VD + CA(t) × VA]/(VD + VA), CD(t) indicates the compound concentration in donor well at time t (mM), CA(t) indicates the compound concentration in acceptor well at time t (mM), VD is the donor well volume (0.3 mL), VA is the acceptor well volume (0.2 mL), t is the incubation time (18000 s), and A is the effective filter area (0.3 cm^2).
# [4] = system: Lactobacillus paracasei PCM 3039; assay: Bacterial cell wall hydrophobicity (Congo Red binding); assay type: cell-based; details: 0.2 mg mL^−1 BP, 24 h; Ctrl 39.7 ± 8.0%
# Description: (§1) Lactobacillus paracasei PCM 3039 used in the experiments was purchased from the Polish Collection of Microorganisms (Wroclaw, Poland). The liquid cultures were composed of the minimal medium (10% solution of MRS Broth in Dulbecco’s Phosphate Buffered Saline (DPBS)), the inoculum, and a BP stock solution in water (initial concentration of BPs in each culture was 0.2 mg mL^−1). The bacterial inoculum was prepared from the broth cultures incubated overnight at 37 °C and washed twice with a sterile medium. The initial cell concentration in each culture was adjusted to 1–10^8 cfu mL^−1. The reference cultures without the addition of BPs (denoted as Ctrl) and the abiotic control samples with the addition of pure minimal medium instead of bacterial inoculum were carried out. All samples were incubated at 36 °C for 24 h with shaking (150 rpm). The effect of BPs on the properties of bacterial cells was also evaluated. The experiments performed include (i) modifications of the bacterial cell membrane permeability—the measurements were based on the Crystal Violet uptake by the cells, (ii) modifications of the bacterial cell wall hydrophobicity, based on the procedure described previously. Relative metabolic activity of cells treated with the compounds in question measured with the colorimetric test AlamarBlue® Cell Viability Assay.
# [5] = system: Lactobacillus paracasei PCM 3039; assay: Bacterial cell membrane permeability (Crystal Violet uptake); assay type: cell-based; details: 0.2 mg mL^−1 BP, 24 h; for Crystal Violet uptake (cell membrane permeability): Ctrl 33.4 ± 8.0%
# Description: as §1
# [6] = system: Lactobacillus paracasei PCM 3039; assay: Relative metabolic activity (AlamarBlue Cell Viability Assay); assay type: cell-based; details: 0.2 mg mL^−1 BP, relative to control group set at 100%
# Description: as §1
# [7] = parameters: method as in PMID 18056045; details: cited from earlier work
# Caco-2 cell monolayer = system: Caco-2 cell monolayer; parameters: method as in PMID 26542347; details: cited from earlier work
# [8] = parameters: method as in PMID 26542347; details: in vitro artificial intestinal membrane; cited from earlier work
# [9] = system: Lactobacillus paracasei PCM 3039; assay: Growth curve of L. paracasei (OD600); assay type: cell-based; details: 0.2 mg mL^−1 BP, 24 h
# Description: Lactobacillus paracasei PCM 3039 used in the experiments was purchased from the Polish Collection of Microorganisms (Wroclaw, Poland). The liquid cultures were composed of the minimal medium (10% solution of MRS Broth in Dulbecco’s Phosphate Buffered Saline (DPBS)), the inoculum, and a BP stock solution in water (initial concentration of BPs in each culture was 0.2 mg mL^−1). The bacterial inoculum was prepared from the broth cultures incubated overnight at 37 °C and washed twice with a sterile medium. The initial cell concentration in each culture was adjusted to 1–10^8 cfu mL^−1. The reference cultures without the addition of BPs (denoted as Ctrl) and the abiotic control samples with the addition of pure minimal medium instead of bacterial inoculum were carried out. All samples were incubated at 36 °C for 24 h with shaking (150 rpm). The growth of cells treated with BPs as well as control cells was monitored by measuring the optical density at the wavelength of 600 nm (OD600) as described by. The growth curve measurements were performed with a microplate reader Multiskan 152 Sky (Thermo Fisher Scientific, Waltham, MA, USA). 200 μL of the prepared bacterial cultures were transferred to the 96-well clear bottom sterile microplates wells. The plates were maintained at 37 °C with pulse shaking. The OD600 of each well was read every 10 min for 24 h.
# [10] = parameters: method as in PMID 32387834; details: oral; cited from earlier work
SMILES,"affinity for HA (sorption), comparison in words [2]",Congo Red Binding (cell wall hydrophobicity) [4],Crystal Violet uptake (cell membrane permeability) [5],change in membrane permeability in comparison with RSD [5],AlamarBlue Reduction (relative metabolic activity) [6],also measured
"O=P(O)(O)C(Nc1nc2ccccc2s1)P(=O)(O)O [BP12, N-(1,3-benzothiazol-2-yl)amino-methylene-1,1-bisphosphonic acid]",lower affinity for HA compared to RSD and BP1,,,,,"sorption and desorption on polymer-ceramic materials [1]: high sorption levels on polymer-ceramic materials, followed by extensive desorption"
O=P(O)(O)C(Nc1cccnc1Cl)P(=O)(O)O [BP10],,86.4 ± 1.7%,60.6 ± 8.7%,,,
"O=P(O)(O)C(Nc1cccc(O)n1)P(=O)(O)O [BP11, (6-hydroksy-2-pyridinyl)amino-methylene-1,1-bisphosphonic acid]",highest sorption,35.2 ± 6.1%,30.9 ± 6.4%,significant decrease,60.4 ± 3.4%,"PAMPA permeability, comparison in words [3]: highest permeability among all analyzed BPs"
O=P(O)(O)C(Cl)(Cl)P(=O)(O)O [clodronate],,,,,,urinary excretion 24 h after the first dose [7]: 73%
"O=P(O)(O)C(O)(Cn1ccnc1)P(=O)(O)O [Zoledronate, zoledronic acid]",,,,,,urinary excretion 24 h after the first dose [7]: 38%; apparent permeability coefficient Papp (Caco-2 cell monolayer): 2.72 ± 0.868 (× 10^−6) cm s^−1; permeability Pe [8]: Not detected
"Cc1cc(C)nc(NC(P(=O)(O)O)P(=O)(O)O)c1 [BP5, (4,6-dimethyl-2-pyridinyl)amino-methylene-1,1-bisphosphonic acid]",lower affinity,,,significant decrease,,
"Cc1cccnc1NC(P(=O)(O)O)P(=O)(O)O [BP2, (3-methyl-2-pyridinyl)aminomethylene-1,1-bisphosphonic acid]",lower affinity,,,,approximately 154.0%,"drug concentration in the acceptor plate relative to RSD [3]: over twice as high as RSD; PAMPA permeability, comparison in words [3]: higher permeability than the other two compounds; sorption and desorption on polymer-ceramic materials [1]: high sorption levels on polymer-ceramic materials, followed by extensive desorption"
"O=P(O)(O)C(O)(Cc1cccnc1)P(=O)(O)O [RSD, Risedronate]",,,,,,"growth of L. paracasei (OD600 growth curve), in words [9]: initial fast cell growth was followed by a rapid decrease in cell density; urinary excretion 24 h after the first dose [7]: 65%; sorption on HA ([2]; 10 mL SBF): approximately 50%; bioavailability [10]: 0.62%"

# The next lines start with results.
"affinity for HA (sorption), comparison in words [2]",Congo Red Binding (cell wall hydrophobicity) [4],Crystal Violet uptake (cell membrane permeability) [5],change in membrane permeability in comparison with RSD [5],SMILES,AlamarBlue Reduction (relative metabolic activity) [6],also measured
stronger affinity for HA than RSD,82.1 ± 1.7%,,,"O=P(O)(O)C(Nc1ccc(Cl)cn1)P(=O)(O)O [BP8, (5-chloro-2-pyridinyl)amino-methylene-1,1-bisphosphonic acid]",,"drug concentration in the acceptor plate relative to RSD [3]: over twice as high as RSD; PAMPA permeability, comparison in words [3]: higher than twice as much as BP9 permeability; also recorded: highest permeability among all analyzed BPs"
,89.3 ± 3.5%,62.7 ± 8.4%,,"Cc1ccc(NC(P(=O)(O)O)P(=O)(O)O)nc1 [BP4, (5-methyl-2-pyridinyl)aminomethylene-1,1-bisphosphonic acid]",approximately 154.0%,"drug concentration in the acceptor plate relative to RSD [3]: over twice as high as RSD; PAMPA permeability, comparison in words [3]: higher permeability than the other two compounds"
,85.0 ± 2.4%,61.9 ± 5.7%,,"O=P(O)(O)C(Nc1cccc(Cl)n1)P(=O)(O)O [BP9, (6-chloro-2-pyridinyl)amino-methylene-1,1-bisphosphonic acid]",35.9 ± 16.7%,
,,,significant decrease,"Cc1ccnc(NC(P(=O)(O)O)P(=O)(O)O)c1 [BP3, (4-methyl-2-pyridinyl)aminomethylene-1,1-bisphosphonic acid]",,
slightly higher affinity for HA than RSD,,,significant decrease,"O=P(O)(O)C(Nc1ccccn1)P(=O)(O)O [BP1, 2-pyridinylaminomethylene-1,1-bisphosphonic acid]",approximately 154.0%,"sorption and desorption on polymer-ceramic materials [1]: high sorption levels on polymer-ceramic materials, followed by extensive desorption"
slightly higher affinity for HA than RSD,45.0 ± 5.8%,30.6 ± 6.0%,significant decrease,"O=P(O)(O)C(Nc1ccc(Br)cn1)P(=O)(O)O [BP7, (5-bromo-2-pyridinyl)amino-methylene-1,1-bisphosphonic acid]",,drug concentration in the acceptor plate relative to RSD [3]: over twice as high as RSD
slightly higher affinity for HA than RSD,,,,"O=P(O)(O)C(Nc1ccc(I)cn1)P(=O)(O)O [BP6, (5-iodo-2-pyridinyl)amino-methylene-1,1-bisphosphonic acid]",,
